# Legend:
# [1] = tested on: time to first ejaculation of male rats; test: Time until first ejaculation in male rats, 5-HT1A-receptor antagonist in conjunction with serotonergic agent (Example 3); assay type: in vivo; details: antagonist in conjunction with Citalopram, Fluoxetine, Ifoxetine, Paroxetine or Zimelidine shortly before sexual activity, relative to the rat's own average without treatment
# Protocol: In a study with male rats, 10 different 5-HT1A-receptor antagonists are administered in conjunction with five different serotonergic agents shortly before sexual activity.
# male rat sexual behavior = test: Male rat sexual behavior model (sexually trained males, 30-min access to receptive females); assay type: in vivo; details: for behavioral effects on sexual behavior, antagonist alone: separate experiments, not shown
# Source text: A model of sexual behavior in male rats was developed that is predictive of SSRI-effects on human male sexual behavior (Bijlsma et al. 2014; Olivier et al. 2006; 2017). In this male rat sexual behavior model, SSRIs inhibit sexual behavior, but only upon chronic administration thereby mimicking and modeling the SSRI effects in human males.
# Male rats were sexually trained till they obtained a stable sexual performance (on average 2 ejaculations per 30-min, the standard testing duration). Animals were injected intraperitoneally 30-min before testing after which males had 30 min access to the females that were behaviorally sexually receptive. A trained researcher scored the sexual behavior of the males according to published and accepted methods (Chan et al. 2010).
# 5-HT1A-receptor = target: T1, 5-HT1A-receptor (Homo sapiens, UniProt P08908); details: healthy human volunteers, cited from earlier work
# T1 construct: host or cells: brain of healthy human volunteers (in vivo PET)
# T1 sequence (P08908 1-422): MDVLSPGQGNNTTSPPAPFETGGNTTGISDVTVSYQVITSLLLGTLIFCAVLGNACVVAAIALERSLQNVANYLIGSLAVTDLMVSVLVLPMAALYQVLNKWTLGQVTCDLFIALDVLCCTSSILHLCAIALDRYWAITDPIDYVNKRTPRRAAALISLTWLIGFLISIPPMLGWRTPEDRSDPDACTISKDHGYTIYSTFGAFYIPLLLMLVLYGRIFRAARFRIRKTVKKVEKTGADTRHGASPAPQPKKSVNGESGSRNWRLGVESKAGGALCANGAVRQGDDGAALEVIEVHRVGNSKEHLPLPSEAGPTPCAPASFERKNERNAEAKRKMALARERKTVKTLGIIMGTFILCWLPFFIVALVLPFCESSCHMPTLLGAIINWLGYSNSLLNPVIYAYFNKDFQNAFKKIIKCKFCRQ
# 5-HT1A receptor = details: cited from earlier work
compound,measurement,setting,value
CC(C)NCC(O)COc1cccc2[nH]ccc12 (centres unmarked) [Pindolol],Potential average increase in time to first ejaculation (%),[1],46%
CC(C)NCC(O)COc1cccc2ccccc12 (centres unmarked) [Propranolol],Potential average increase in time to first ejaculation (%),[1],87%
CSc1ccc2c(c1)C(N1CCN(C)CC1)Cc1ccccc1S2 (centres unmarked) [Methiothepin],Potential average increase in time to first ejaculation (%),[1],97%
Cc1nc2n(c(=O)c1CCN1CCC(c3noc4cc(F)ccc34)CC1)CCCC2 [Risperidone],Potential average increase in time to first ejaculation (%),[1],102%
O=C(CCCN1CCC2(CC1)C(=O)NCN2c1ccccc1)c1ccc(F)cc1 [Spiperone],Potential average increase in time to first ejaculation (%),[1],80%
"O=C1c2ccccc2S(=O)(=O)N1CCCCN1CCN(c2cc(Cl)cc3c2OCCO3)CC1 [DU125530, 2-[4-[4-(7-chloro-2,3-dihydro-1,4-benzodi-oxin-5-yl)-1-piperazinyl]butyl]-1,2-benzisothiazol-3(2H)-one-1,1-dioxide]","behavioral effects on sexual behavior, antagonist alone",male rat sexual behavior; DU125530 alone at doses up to 20 mg/kg,no behavioral effects on sexual behavior
same,effect on male rat sexual behavior,"male rat sexual behavior; acute DU125530 20 mg/kg in combination with acute paroxetine 5 mg/kg, intraperitoneally 30 min before testing",strongly inhibited male rat sexual behavior
same,effects when administered alone,male rat sexual behavior; administered alone,no effects
same,pharmacological activity when combined with paroxetine,male rat sexual behavior; combined with paroxetine,pharmacologically active
same,safety,"male rat sexual behavior; rat, in vivo",safe
same,Potential average increase in time to first ejaculation (%),[1],254%
same,5-HT1A-receptor occupancy,"5-HT1A-receptor; 10 to 40-mg daily dose range, 2 h post the last dose, dose-dependent",0-72%
same,side effects,5-HT1A-receptor; 10 to 40-mg daily dose range,minor side effects
same,tolerability,5-HT1A-receptor; 10 to 40-mg daily dose range,well tolerated
same,correlation of occupancy with plasma levels,5-HT1A-receptor,correlated highly
same,5-HT1A receptor antagonistic activities in vitro and in vivo,5-HT1A receptor; Mos et al. 1997,selective 5-HT1A receptor antagonistic activities
same,biological activity given on itself,"5-HT1A receptor; given on itself, Joordens et al. 1997",without biological activity
same,5-HT1A receptor antagonistic activity in several animal models,5-HT1A receptor; several animal models,nice and reliable 5-HT1A receptor antagonistic activity
OC(CNCC(O)C1CCc2cc(F)ccc2O1)C1CCc2cc(F)ccc2O1 (centres unmarked) [Nebiovolol],Potential average increase in time to first ejaculation (%),[1],95%
c1ccc(C(c2ccccc2)N2CCN(CCCC3(c4ccccc4)OCCO3)CC2)cc1 [Dotarizine],Potential average increase in time to first ejaculation (%),[1],67%
C=CCc1ccccc1OCC(O)CNC(C)C (centres unmarked) [Alprenolol],Potential average increase in time to first ejaculation (%),[1],75%
"COc1ccccc1N1CCN(CCN(C(=O)C2CCCCC2)c2ccccn2)CC1 [WAY100,635, reference compound]",effect on male rat sexual behavior,"male rat sexual behavior; WAY100,635 (0.3 mg/kg) in combination with paroxetine (5 mg/kg), own data, compared with DU125530 + paroxetine",comparable inhibition
same,"behavioral effects on sexual behavior, antagonist alone","male rat sexual behavior; WAY100,635 alone at doses up to 1 mg/kg, IP",no behavioral effects on sexual behavior

# — patent US20220265641A1, “SEROTONERGIC AGENT AND 5-HT1A-RECEPTOR ANTAGONIST” (ATLAS PHARMACEUTICALS BV, priority 2019, published 2022)
